For 2 compounds, IC50 results are on record in ChEMBL document CHEMBL1154254, “Antiproliferative triterpenoid saponins of Dodonaea viscosa from the Madagascar dry forest” (J Nat Prod, 2009).

Assay type in all cases: functional, cell-based
One experiment has as its system DU-145. In words: Antiproliferative activity against human DU145 cells.
A further experiment deals with NCI-H460. In words: Antiproliferative activity against human NCI-H460 cells.
In a further experiment the test system is HCC 2998. In words: Antiproliferative activity against human HCC2998 cells.
Another experiment deals with A2780. Put plainly: Antiproliferative activity against human A2780 cells after 2 days by alamar blue assay. Particulars: A2780, 48 h. Background: Resazurin is reduced to fluorescent resorufin, in cell work by metabolically active cells.
For another experiment, the system named is BT-549. Put plainly: Antiproliferative activity against human BT549 cells.

The IC50 is the concentration that inhibits the measured activity by half. Consider `C/C=C(/C)C(=O)O[C@H]1[C@H](OC(=O)/C(C)=C\C)[C@]2(CO)[C@H](O)[C@H](O)[C@]3(C)C(=CC[C@@H]4[C@@]5(C)CC[C@H](O[C@@H]6O[C@H](C(=O)O)[C@@H](O)[C@H](O[C@@H]7O[C@@H](CO)[C@H](O)[C@H]7O)[C@H]6O[C@@H]6O[C@H](CO)[C@@H](O)[C@H](O)[C@H]6O)C(C)(C)[C@@H]5CC[C@]43C)[C@@H]2CC1(C)C` [DODONAEASIDE A], for which the half-inhibitory concentration (IC50) in the experiment on DU-145 is over 5 µM; with NCI-H460, over 5 µM; in the experiment on HCC 2998, over 5 µM; in the experiment with A2780, 0.79 µM; in the experiment with BT-549, over 5 µM.
`C/C=C(/C)C(=O)O[C@H]1[C@H](OC(=O)[C@]2(C)O[C@@H]2C)C(C)(C)C[C@H]2C3=CC[C@@H]4[C@@]5(C)CC[C@H](O[C@@H]6O[C@H](C(=O)O)[C@@H](O)[C@H](O[C@@H]7O[C@@H](CO)[C@H](O)[C@H]7O)[C@H]6O[C@@H]6O[C@H](CO)[C@@H](O)[C@H](O)[C@H]6O)C(C)(C)[C@@H]5CC[C@@]4(C)[C@]3(C)C[C@@H](O)[C@]21CO` [DODONAEASIDE B]: half-maximal inhibition in the experiment with A2780 (IC50) was put at 0.7 µM.
